Laboratory results as given in ChEMBL document CHEMBL1201862, “PubChem BioAssay data set” (2004).
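Compound exposure: 48 hours, 5 concentrations, 96-well plates. At the GI50, growth is halved.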 Calls of active or inactive are those of the source. Rule as the data show it: active = GI50 up to about 1.1 µM and inactive = higher.

What was measured:
Assay in all cases: NCI-60 cell line screen, 48 h
[1] = system: KM12
[2] = system: K562
[3] = system: HOP-62
[4] = system: NCI-H23
[5] = system: OVCAR-4
[6] = system: MDA-MB-231
[7] = system: SF-295
[8] = system: SK-MEL-2
[9] = system: IGROV-1
[10] = system: HCC 2998
[11] = system: RPMI-8226
[12] = system: BT-549
[13] = system: T47D
[14] = system: CCRF-CEM
[15] = system: SK-MEL-5
[16] = system: MDA-N
[17] = system: M14
[18] = system: COLO 205

SMILES | GI50 [1] | GI50 [2] | GI50 [3] | GI50 [4] | GI50 [5] | GI50 [6] | GI50 [7] | GI50 [8] | GI50 [9] | GI50 [10] | GI50 [11] | GI50 [12] | GI50 [13] | GI50 [14] | GI50 [15] | GI50 [16] | GI50 [17] | GI50 [18]
COc1cc2cc(C(=O)N3C[C@@H](CCl)c4c3cc(N)c3ccccc43)[nH]c2c(OC)c1OC | 0.00216 µM (active) | 0.00327 µM (active) | 0.00755 µM (active) | 0.0138 µM (active) | 0.826 µM (active) | 0.00172 µM (active) | < 0.01 µM (active) | < 0.01 µM (active) | 0.00611 µM (active) | < 0.01 µM (active) | 0.0076 µM (active) | 0.0442 µM (active) | 0.00104 µM (active) | 0.000644 µM (active) | < 0.01 µM (active) | 0.000296 µM (active) | 0.00104 µM (active) | 0.0776 µM (active)
CC(Oc1ccccc1Cl)C(=O)NN1C(=O)CSC1c1ccccc1 (stereo not drawn) | > 100 µM (inactive) | 32.7 µM (inactive) | > 100 µM (inactive) | > 100 µM (inactive) | > 100 µM (inactive) | > 100 µM (inactive) | 68.7 µM (inactive) | > 100 µM (inactive) | > 100 µM (inactive) | > 100 µM (inactive) | 83 µM (inactive) | > 100 µM (inactive) | 63.4 µM (inactive) | > 100 µM (inactive) | > 100 µM (inactive) | 57.8 µM (inactive) | > 100 µM (inactive) | > 100 µM (inactive)
O=C1OCc2c1cc1cc3c(cc1c2-c1ccc2c(c1)OCO2)OCO3.O=C1OCc2cc3cc4c(cc3c(-c3ccc5c(c3)OCO5)c21)OCO4 | 11.1 µM (inactive) | 0.979 µM (active) | 6.31 µM (inactive) | 28.8 µM (inactive) | 18 µM (inactive) | 2.12 µM (inactive) | 2.41 µM (inactive) | 11.4 µM (inactive) | 8.55 µM (inactive) | 18.7 µM (inactive) | 4.31 µM (inactive) | 19 µM (inactive) | 24.5 µM (inactive) | 3.34 µM (inactive) | 4.7 µM (inactive) | 1.41 µM (inactive) | 4.47 µM (inactive) | 5.79 µM (inactive)
COc1ccc(NC(C)=O)cc1N1C(=O)/C(=C\c2cc(OC)c(OC)c(OC)c2)S(=O)(=O)C1c1ccccc1 (stereo not drawn) | 46.7 µM (inactive) | 28.5 µM (inactive) | 78.2 µM (inactive) | 71.4 µM (inactive) | 31.6 µM (inactive) | 74.3 µM (inactive) | 55 µM (inactive) | > 100 µM (inactive) | 98.4 µM (inactive) | > 100 µM (inactive) | 65.8 µM (inactive) | > 100 µM (inactive) | 38.3 µM (inactive) | 29.3 µM (inactive) | 44.8 µM (inactive) | 34.1 µM (inactive) | 69.5 µM (inactive) | 39 µM (inactive)
N#Cc1c2c(c(Nc3ccc(F)cc3)n3c1nc1ccccc13)CCCC2 | 5.6 µM (inactive) | 0.562 µM (active) | 29.1 µM (inactive) | > 100 µM (inactive) | > 87.3 µM (inactive) | > 100 µM (inactive) | 8.15 µM (inactive) | > 100 µM (inactive) | > 59.3 µM (inactive) | > 100 µM (inactive) | 10.5 µM (inactive) | > 91.6 µM (inactive) | 6.64 µM (inactive) | > 22.5 µM (inactive) | 23.8 µM (inactive) | > 28.6 µM (inactive) | 1.7 µM (inactive) | > 22.1 µM (inactive)
COC1(OC)C2(Cl)C(Cl)=C(Cl)C1(Cl)C1COCC12 (stereo not drawn) | > 100 µM (inactive) | > 88.5 µM (inactive) | > 100 µM (inactive) | > 45 µM (inactive) | > 100 µM (inactive) | > 100 µM (inactive) | > 100 µM (inactive) | > 100 µM (inactive) | > 100 µM (inactive) | > 100 µM (inactive) | > 72.4 µM (inactive) | > 100 µM (inactive) | > 100 µM (inactive) | > 100 µM (inactive) | > 100 µM (inactive) | > 20.4 µM (inactive) | > 100 µM (inactive) | > 100 µM (inactive)
